Results reported in patent US12291519B2, “2-hydroxycycloalkane-1-carbamoyl” (Idorsia Pharmaceuticals Ltd, priority 2019, dated 2025).

What was measured:
human Gal-3 (hGal-3) = human Gal-3 (hGal-3) (Homo sapiens (Human), UniProt P17931); experiment: Competitive binding assay: biotinylated hGal-3 binding to microplate-adsorbed asialofetuin (ASF); conditions: Activity on hGal-3; binding of biotinylated hGal-3 to ASF-coated plates; mean values
Protocol: (§1) Evaluation of Compound Inhibitory Activity (IC50)
The inhibitory activity of compounds is determined in competitive binding assays. […] Alternatively, and preferably, a human Gal-1 version in which all six cysteines are substituted by serines may be used.
Briefly, compounds are serially diluted in DMSO (working dilutions).
(§2) Plates are incubated for 3 hours at 4° C. then washed with cold assay buffer (3×50 uL), incubated for 1 hour with 25 μL/well of a streptavidin-peroxidases solution (diluted in assay buffer to 80 ng/mL) at 4° C., followed by further washing steps with assay buffer (3×50 uL). Finally, 25 μL/well of ABTS substrate is added.
(§3) The calculated IC50 values may fluctuate depending on the daily assay performance. Fluctuations of this kind are known to those skilled in the art. IC50 values from several measurements are given as mean values.

human Gal-1 (hGal-1) = experiment: Competitive binding assay: biotinylated hGal-1 binding to microplate-adsorbed asialofetuin (ASF); conditions: Activity on hGal-1; binding of biotinylated hGal-1 to ASF-coated plates; mean values
human Gal-1 (hGal-1), sequence (P09382 2-135 limits assumed): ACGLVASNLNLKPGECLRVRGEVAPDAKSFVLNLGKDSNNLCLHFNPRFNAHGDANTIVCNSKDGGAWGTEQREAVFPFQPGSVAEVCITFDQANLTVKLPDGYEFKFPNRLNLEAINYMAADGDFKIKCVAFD
Protocol: as §1
The inhibitory activity of compounds is determined in competitive binding assays. This spectrophotometric assay measures the binding of biotinylated human Gal-3 (hGal-3) or human Gal-1 (hGAl-1), respectively, to a microplate-adsorbed glycoprotein, asialofetuin (ASF) (Proc Natl Acad Sci USA. 2013 Mar. 26; 110(13):5052-7.). Alternatively, and preferably, a human Gal-1 version in which all six cysteines are substituted by serines may be used.
Briefly, compounds are serially diluted in DMSO (working dilutions). ASF-coated 384 well pates are supplemented with 22.8 μL/well of biotinylated hGal-3 or hGal-1 in assay buffer (i.e. 300-1000 ng/mL biotinylated hGal-3 or hGal-1) to which 1.2 μL of compound working dilutions are added and mixed.
as §2, with “added. OD (410 nm) is recorded after 30 to 45 min and IC50 values are calculated.” for “added.”
as §3

human Gal-3 (hGal-3), sequence (P17931 whole entry): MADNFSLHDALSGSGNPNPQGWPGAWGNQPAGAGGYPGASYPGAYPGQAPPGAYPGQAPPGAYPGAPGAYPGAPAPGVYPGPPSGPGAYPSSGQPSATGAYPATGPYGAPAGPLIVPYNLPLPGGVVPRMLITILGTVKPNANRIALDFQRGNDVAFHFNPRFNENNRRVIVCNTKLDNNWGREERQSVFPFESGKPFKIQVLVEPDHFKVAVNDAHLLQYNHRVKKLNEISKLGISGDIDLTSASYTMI

Compound	IC50 (human Gal-3 (hGal-3)) [nM]	IC50 (human Gal-1 (hGal-1)) [nM]
CO[C@@H]1[C@@H](n2cc(-c3cc(F)c(Cl)c(Cl)c3)nn2)[C@@H](O)[C@@H](CO)O[C@H]1C(=O)N(c1ccc(F)c(F)c1)[C@H]1CCCC[C@@H]1O [Example 167, (2R,3R,4S,5R,6R)-4-(4-(3,4-dichloro-5-fluorophenyl)-1H-1,2,3-triazol-1-yl)-N-(3,4-difluorophenyl)-5-hydroxy-N-((1S,2S)-2-hydroxycyclohexyl)-6-(hydroxymethyl)-3-methoxytetrahydro-2H-pyran-2-carboxamide]	64	1240
CO[C@@H]1[C@@H](n2cc(-c3cc(F)c(F)c(F)c3)nn2)[C@@H](O)[C@@H](CO)O[C@H]1C(=O)N(Cc1nc[nH]c1C)[C@H]1CCCC[C@@H]1O [Example 30, (2R,3R,4S,5R,6R)-5-hydroxy-N-((1S,2S)-2-hydroxycyclohexyl)-6-(hydroxymethyl)-3-methoxy-N-((5-methyl-1H-imidazol-4-yl)methyl)-4-(4-(3,4,5-trifluorophenyl)-1H-1,2,3-triazol-1-yl)tetrahydro-2H-pyran-2-carboxamide]	575	10400
CC(=O)O[C@@H]1[C@@H](n2cc(-c3cccc(F)c3)nn2)[C@@H](O)[C@@H](CO)O[C@H]1C(=O)N(Cc1ccnn1C)[C@H]1CCCC[C@@H]1O [Example 52, (2R,3R,4S,5R,6R)-4-(4-(3-fluorophenyl)-1H-1,2,3-triazol-1-yl)-5-hydroxy-2-(((1S,2S)-2-hydroxycyclohexyl)((1-methyl-1H-pyrazol-5-yl)methyl)carbamoyl)-6-(hydroxymethyl)tetrahydro-2H-pyran-3-yl acetate]	191	1600
O=C([C@@H]1O[C@H](CO)[C@H](O)[C@H](n2cc(-c3cc(F)c(Br)c(F)c3)nn2)[C@H]1O)N(Cc1ccccc1C(F)(F)F)[C@H]1CCCC[C@@H]1O [Example 69, (2R,3R,4S,5R,6R)-4-(4-(4-bromo-3,5-difluorophenyl)-1H-1,2,3-triazol-1-yl)-3,5-dihydroxy-N-((1S,2S)-2-hydroxycyclohexyl)-6-(hydroxymethyl)-N-(2-(trifluoromethyl)benzyl)tetrahydro-2H-pyran-2-carboxamide]	84	2570
O=C([C@@H]1O[C@H](CO)[C@H](O)[C@H](n2cc(-c3cc(F)c(F)c(F)c3)nn2)[C@H]1O)N(Cc1cccnc1C(F)(F)F)[C@H]1CCCC[C@@H]1O [Example 9, (2R,3R,4S,5R,6R)-3,5-dihydroxy-N-((1S,2S)-2-hydroxycyclohexyl)-6-(hydroxymethyl)-N-((2-(trifluoromethyl)pyridin-3-yl)methyl)-4-(4-(3,4,5-trifluorophenyl)-1H-1,2,3-triazol-1-yl)tetrahydro-2H-pyran-2-carboxamide]	147	1640
CO[C@@H]1[C@@H](n2cc(-c3cc(F)c(F)c(F)c3)nn2)[C@@H](O)[C@@H](CO)O[C@H]1C(=O)N(Cc1ccnn1C(C)C)[C@H]1CCCC[C@@H]1O [Example 45, (2R,3R,4S,5R,6R)-5-hydroxy-N-((1S,2S)-2-hydroxycyclohexyl)-6-(hydroxymethyl)-N-((1-isopropyl-1H-pyrazol-5-yl)methyl)-3-methoxy-4-(4-(3,4,5-trifluorophenyl)-1H-1,2,3-triazol-1-yl)tetrahydro-2H-pyran-2-carboxamide]	421	1430
CO[C@@H]1[C@@H](n2cc(-c3cc(F)cc(Br)c3)nn2)[C@@H](O)[C@@H](CO)O[C@H]1C(=O)N(c1cccc(Cl)c1)[C@H]1CCCC[C@@H]1O [Example 149, (2R,3R,4S,5R,6R)-4-(4-(3-bromo-5-fluorophenyl)-1H-1,2,3-triazol-1-yl)-N-(3-chlorophenyl)-5-hydroxy-N-((1S,2S)-2-hydroxycyclohexyl)-6-(hydroxymethyl)-3-methoxytetrahydro-2H-pyran-2-carboxamide]	85	707
CO[C@@H]1[C@@H](n2cc(-c3cc(F)c(F)c(Cl)c3)nn2)[C@@H](O)[C@@H](CO)O[C@H]1C(=O)N(c1cc(Cl)cc(Cl)c1)[C@H]1CCCC[C@@H]1O [Example 129, (2R,3R,4S,5R,6R)-4-(4-(3-chloro-4,5-difluorophenyl)-1H-1,2,3-triazol-1-yl)-N-(3,5-dichlorophenyl)-5-hydroxy-N-((1S,2S)-2-hydroxycyclohexyl)-6-(hydroxymethyl)-3-methoxytetrahydro-2H-pyran-2-carboxamide]	32	141
CO[C@@H]1[C@@H](n2cc(-c3cc(F)cc(Br)c3)nn2)[C@@H](O)[C@@H](CO)O[C@H]1C(=O)N(c1cc(F)cc(Cl)c1)[C@H]1CCCC[C@@H]1O [Example 147, (2R,3R,4S,5R,6R)-4-(4-(3-bromo-5-fluorophenyl)-1H-1,2,3-triazol-1-yl)-N-(3-chloro-5-fluorophenyl)-5-hydroxy-N-((1S,2S)-2-hydroxycyclohexyl)-6-(hydroxymethyl)-3-methoxytetrahydro-2H-pyran-2-carboxamide]	71	530

These reach a lower IC50 (human Gal-3 (hGal-3)). Values come first.

IC50 (human Gal-3 (hGal-3)) [nM]	IC50 (human Gal-1 (hGal-1)) [nM]	Compound
30	1830	CO[C@@H]1[C@@H](n2cc(-c3cc(F)c(F)c(F)c3)nn2)[C@@H](O)[C@@H](CO)O[C@H]1C(=O)N(c1cc(C)cc(F)c1)[C@H]1CCCC[C@@H]1O [Example 119, (2R,3R,4S,5R,6R)-N-(3-fluoro-5-methylphenyl)-5-hydroxy-N-((1S,2S)-2-hydroxycyclohexyl)-6-(hydroxymethyl)-3-methoxy-4-(4-(3,4,5-trifluorophenyl)-1H-1,2,3-triazol-1-yl)tetrahydro-2H-pyran-2-carboxamide]
20	163	CO[C@@H]1[C@@H](n2cc(-c3cc(F)c(F)c(F)c3)nn2)[C@@H](O)[C@@H](CO)O[C@H]1C(=O)N(c1ccc2ncsc2c1)[C@H]1CCCC[C@@H]1O [Example 93, (2R,3R,4S,5R,6R)-N-(benzo[d]thiazol-6-yl)-5-hydroxy-N-((1S,2S)-2-hydroxycyclohexyl)-6-(hydroxymethyl)-3-methoxy-4-(4-(3,4,5-trifluorophenyl)-1H-1,2,3-triazol-1-yl)tetrahydro-2H-pyran-2-carboxamide]
10	76	CO[C@@H]1[C@@H](n2cc(-c3cc(F)c(F)c(F)c3)nn2)[C@@H](O)[C@@H](CO)O[C@H]1C(=O)N(c1cc(Cl)ccc1C)[C@H]1CCCC[C@@H]1O [Example 89, (2R,3R,4S,5R,6R)-N-(5-chloro-2-methylphenyl)-5-hydroxy-N-((1S,2S)-2-hydroxycyclohexyl)-6-(hydroxymethyl)-3-methoxy-4-(4-(3,4,5-trifluorophenyl)-1H-1,2,3-triazol-1-yl)tetrahydro-2H-pyran-2-carboxamide]
21	273	CO[C@@H]1[C@@H](n2cc(-c3cc(F)c(NCCCO)c(F)c3)nn2)[C@@H](O)[C@@H](CO)O[C@H]1C(=O)N(c1cc(Cl)cc(Cl)c1)[C@H]1CCCC[C@@H]1O [Example 204, (2R,3R,4S,5R,6R)—N-(3,5-dichlorophenyl)-4-(4-(3,5-difluoro-4-((3-hydroxypropyl)amino)phenyl)-1H-1,2,3-triazol-1-yl)-5-hydroxy-N-((1S,2S)-2-hydroxycyclohexyl)-6-(hydroxymethyl)-3-methoxytetrahydro-2H-pyran-2-carboxamide]
21	729	CO[C@@H]1[C@@H](n2cc(-c3cc(F)c(F)c(F)c3)nn2)[C@@H](O)[C@@H](CO)O[C@H]1C(=O)N(c1cccc(Cl)c1)[C@H]1CCCC[C@@H]1O [Example 58]
